# Measured values as given in patent US20200054633A1 (priority 2017, published 2020).
# Entries after “also recorded” stand apart in the source; their conditions may differ. Read-outs that look alike come from different tables or passages of the source.
# Settings: for subjects with nausea / subjects with treatment-emergent diarrhea: Safety Set
# Description: This study followed a randomized, double-blind, placebo-controlled, parallel-group, multicenter design.
# Analysis set for safety: Safety Set included all subjects who received at least 1 dose of study drug.
structure (smiles),measurement,setting,value
"O=C(O)[C@H]1C2CCC(CC2)[C@@H]1Nc1nc(-c2c[nH]c3ncc(F)cc23)ncc1F [Compound (1), Pimodivir]",TEAE: Hyperglycaemia,"600 mg, OST placebo, N=74",2 (2.7%) n (%)
same,TEAE: Hyperhidrosis,"600 mg, OST placebo, N=74",1 (1.4%) n (%)
same,TEAE: Hyperkalaemia,"600 mg, OST placebo, N=74",2 (2.7%) n (%)
same,TEAE: Hyperproteinaemia,"600 mg, OST placebo, N=74",0 n (%)
same,TEAE: Hypertension,"600 mg, OST placebo, N=74",0 n (%)
same,TEAE: Hyperuricaemia,"600 mg, OST placebo, N=74",0 n (%)
same,TEAE: Hypokalaemia,"600 mg, OST placebo, N=74",0 n (%)
same,TEAE: Hyponatraemia,"600 mg, OST placebo, N=74",0 n (%)
same,TEAE: Hypophosphataemia,"600 mg, OST placebo, N=74",0 n (%)
same,TEAE: Hypothermia,"600 mg, OST placebo, N=74",0 n (%)
same,TEAE: Increased appetite,"600 mg, OST placebo, N=74",1 (1.4%) n (%)
same,TEAE: Infections and infestations,"600 mg, OST placebo, N=74",1 (1.4%) n (%)
same,"TEAE: Injury, poisoning and procedural complications","600 mg, OST placebo, N=74",1 (1.4%) n (%)
same,TEAE: Insomnia,"600 mg, OST placebo, N=74",1 (1.4%) n (%)
same,TEAE: Investigations,"600 mg, OST placebo, N=74",10 (13.5%) n (%)
same,TEAE: Irritability,"600 mg, OST placebo, N=74",1 (1.4%) n (%)
same,TEAE: Labyrinthitis,"600 mg, OST placebo, N=74",0 n (%)
same,TEAE: Leukopenia,"600 mg, OST placebo, N=74",1 (1.4%) n (%)
same,TEAE: Lymph node pain,"600 mg, OST placebo, N=74",0 n (%)
same,TEAE: Lymphadenopathy,"600 mg, OST placebo, N=74",0 n (%)
same,TEAE: Lymphopenia,"600 mg, OST placebo, N=74",1 (1.4%) n (%)
same,TEAE: Metabolism and nutrition disorders,"600 mg, OST placebo, N=74",5 (6.8%) n (%)
same,TEAE: Micturition urgency,"600 mg, OST placebo, N=74",1 (1.4%) n (%)
same,TEAE: Middle ear effusion,"600 mg, OST placebo, N=74",0 n (%)
same,TEAE: Migraine,"600 mg, OST placebo, N=74",1 (1.4%) n (%)
same,TEAE: Muscle spasms,"600 mg, OST placebo, N=74",0 n (%)
same,TEAE: Musculoskeletal and connective tissue disorders,"600 mg, OST placebo, N=74",1 (1.4%) n (%)
same,TEAE: Musculoskeletal chest pain,"600 mg, OST placebo, N=74",0 n (%)
same,TEAE: Myalgia,"600 mg, OST placebo, N=74",0 n (%)
same,TEAE: Myocarditis,"600 mg, OST placebo, N=74",0 n (%)
same,TEAE: Nasal congestion,"600 mg, OST placebo, N=74",0 n (%)
same,TEAE: Nausea,"600 mg, OST placebo, N=74",3 (4.1%) n (%)
same,TEAE: Nephropathy,"600 mg, OST placebo, N=74",0 n (%)
same,TEAE: Nervous system disorders,"600 mg, OST placebo, N=74",4 (5.4%) n (%)
same,TEAE: Neutropenia,"600 mg, OST placebo, N=74",1 (1.4%) n (%)
same,TEAE: Neutrophil count decreased,"600 mg, OST placebo, N=74",4 (5.4%) n (%)
same,TEAE: Oedema peripheral,"600 mg, OST placebo, N=74",0 n (%)
same,TEAE: Oral herpes,"600 mg, OST placebo, N=74",1 (1.4%) n (%)
same,TEAE: Otitis media,"600 mg, OST placebo, N=74",0 n (%)
same,TEAE: Paraesthesia,"600 mg, OST placebo, N=74",0 n (%)
same,TEAE: Percussion test abnormal,"600 mg, OST placebo, N=74",0 n (%)
same,TEAE: Petechiae,"600 mg, OST placebo, N=74",0 n (%)
same,TEAE: Pharyngitis streptococcal,"600 mg, OST placebo, N=74",0 n (%)
same,TEAE: Pneumonia chlamydial,"600 mg, OST placebo, N=74",0 n (%)
same,TEAE: Protein urine,"600 mg, OST placebo, N=74",0 n (%)
same,TEAE: Protein urine present,"600 mg, OST placebo, N=74",0 n (%)
same,TEAE: Proteinuria,"600 mg, OST placebo, N=74",0 n (%)
same,TEAE: Pruritus,"600 mg, OST placebo, N=74",0 n (%)
same,TEAE: Psychiatric disorders,"600 mg, OST placebo, N=74",3 (4.1%) n (%)
same,TEAE: Rash,"600 mg, OST placebo, N=74",0 n (%)
same,TEAE: Red blood cells urine,"600 mg, OST placebo, N=74",0 n (%)
same,TEAE: Renal and urinary disorders,"600 mg, OST placebo, N=74",1 (1.4%) n (%)
same,TEAE: Renal failure,"600 mg, OST placebo, N=74",0 n (%)
same,TEAE: Renal failure chronic,"600 mg, OST placebo, N=74",0 n (%)
same,TEAE: Renal impairment,"600 mg, OST placebo, N=74",0 n (%)
same,"TEAE: Respiratory, thoracic and mediastinal disorders","600 mg, OST placebo, N=74",2 (2.7%) n (%)
same,TEAE: Rhonchi,"600 mg, OST placebo, N=74",0 n (%)
same,TEAE: Sensation of foreign body,"600 mg, OST placebo, N=74",0 n (%)
same,TEAE: Sinus bradycardia,"600 mg, OST placebo, N=74",0 n (%)
same,TEAE: Sinus congestion,"600 mg, OST placebo, N=74",0 n (%)
same,TEAE: Sinus tachycardia,"600 mg, OST placebo, N=74",0 n (%)
same,TEAE: Sinusitis,"600 mg, OST placebo, N=74",0 n (%)
same,TEAE: Skin and subcutaneous tissue disorders,"600 mg, OST placebo, N=74",2 (2.7%) n (%)
same,TEAE: Sleep disorder,"600 mg, OST placebo, N=74",1 (1.4%) n (%)
same,TEAE: Sleep terror,"600 mg, OST placebo, N=74",0 n (%)
same,TEAE: Syncope,"600 mg, OST placebo, N=74",0 n (%)
same,TEAE: Tachycardia,"600 mg, OST placebo, N=74",0 n (%)
same,TEAE: Thrombocytopenia,"600 mg, OST placebo, N=74",0 n (%)
same,TEAE: Tinnitus,"600 mg, OST placebo, N=74",0 n (%)
same,TEAE: Tongue discolouration,"600 mg, OST placebo, N=74",0 n (%)
same,TEAE: Tremor,"600 mg, OST placebo, N=74",0 n (%)
same,TEAE: Upper respiratory tract infection,"600 mg, OST placebo, N=74",0 n (%)
same,TEAE: Urinary tract infection,"600 mg, OST placebo, N=74",0 n (%)
same,TEAE: Urine ketone body present,"600 mg, OST placebo, N=74",0 n (%)
same,TEAE: Vascular disorders,"600 mg, OST placebo, N=74",0 n (%)
same,TEAE: Vertigo,"600 mg, OST placebo, N=74",0 n (%)
same,TEAE: Vomiting,"600 mg, OST placebo, N=74",3 (4.1%) n (%)
same,TEAE: Wheezing,"600 mg, OST placebo, N=74",1 (1.4%) n (%)
same,TEAE: White blood cell count decreased,"600 mg, OST placebo, N=74",1 (1.4%) n (%)
same,Worst grade 1 or 2 TEAE,"600 mg, OST placebo, N=74",34 (45.9%)
same,Worst grade 3 TEAE,"600 mg, OST placebo, N=74",5 (6.8%)
same,Worst grade 3 or 4 TEAE,"600 mg, OST placebo, N=74",5 (6.8%)
same,Worst grade 4 TEAE,"600 mg, OST placebo, N=74",0
same,subjects with nausea,Compound (1) 300 mg bid,4.1%
same,subjects with treatment-emergent diarrhea,Compound (1) 300 mg bid,6.8%
same,severe events considered possibly related to trial medication,Compound (1) 600 mg bid,blood creatine phosphokinase increased and diarrhea
same,subjects with nausea,Compound (1) 600 mg bid,4.1%
same,subjects with treatment-emergent diarrhea,Compound (1) 600 mg bid,27.0%
same,treatment-emergent serious adverse event (SAE),"Compound (1) 600 mg bid, one subject, doubtfully related according to the investigator",an SAE of moderate increased alanine aminotransferase; also recorded: a moderate treatment-emergent AE (TEAE) of increased alanine aminotransferase
same,overall safety and tolerability,"clinical study, 300 or 600 mg bid",generally safe and well tolerated
